How the values were obtained:
Format in all cases: biochemical
[1] = target: T1, SIK1 (Homo sapiens, UniProt P57059); assay: SIK1 kinase assay, IMAP fluorescence polarization; details: 50 or 100 μM ATP, average
T1 construct: purchased Life Technologies
Method: (§1) SIK2, SIK1, SIK3, Abl, Src and EPHA2 Kinase Assays
(§2) SIK2, SIK1, SIK3, Abl, Src and EPHA2 assays were performed using an IMAP fluorescence polarization assay format (Molecular Devices Inc.). 0.6-13 nM of each kinase (Life Technologies) was incubated for 60 min at room temperature with 100 nM of either FAM-Abltide, FAM-Srctide or FAM-HDAC protein derived peptide (synthesized by Alta Biosciences, Birmingham UK). Assays were carried out in the presence of 50 or 100 μM ATP in either 20 mM Tris buffer (pH 7.2) containing 4 mM MgCl2, 0.2% BSA and 2 mM DTT (SIK2, SIK1, SIK3, Abl, Src); or 20 mM Tris buffer (pH 8.5) containing 20 mM MgCl2, 0.5% BSA, 0.2% Triton and 5 mM DTT (EPHA2). Typically, dose response analyses were performed over concentration ranges from 0.00005-1 μM. Reactions were stopped by adding 2 assay volumes of 0.25% (v/v) IMAP binding reagent in either an 85:15 ratio (SIK2, SIK1, SIK3, Abl, EPHA2) or 30:70 ratio (Src) of IMAP binding buffers A and B (Molecular Devices). After incubation to allow the detection reagents to bind to the phosphorylated peptide, fluorescence polarization was measured on a Tecan Infinite plate reader at excitation (470 nm) and emission (530 nm) wavelengths. Inhibition was calculated using no inhibitor and no enzyme controls as 0 and 100% inhibition, respectively.
(§3) Table 3 provides details of the inhibitory constant (nM) of compounds of the invention at SIK1, SIK2 and SIK3 and other kinases.

[2] = target: T2, Abl (Homo sapiens, UniProt P00519); assay: Abl kinase assay, IMAP fluorescence polarization; details: 50 or 100 μM ATP, average
T2 construct: purchased Life Technologies
T2 sequence (P00519 whole entry): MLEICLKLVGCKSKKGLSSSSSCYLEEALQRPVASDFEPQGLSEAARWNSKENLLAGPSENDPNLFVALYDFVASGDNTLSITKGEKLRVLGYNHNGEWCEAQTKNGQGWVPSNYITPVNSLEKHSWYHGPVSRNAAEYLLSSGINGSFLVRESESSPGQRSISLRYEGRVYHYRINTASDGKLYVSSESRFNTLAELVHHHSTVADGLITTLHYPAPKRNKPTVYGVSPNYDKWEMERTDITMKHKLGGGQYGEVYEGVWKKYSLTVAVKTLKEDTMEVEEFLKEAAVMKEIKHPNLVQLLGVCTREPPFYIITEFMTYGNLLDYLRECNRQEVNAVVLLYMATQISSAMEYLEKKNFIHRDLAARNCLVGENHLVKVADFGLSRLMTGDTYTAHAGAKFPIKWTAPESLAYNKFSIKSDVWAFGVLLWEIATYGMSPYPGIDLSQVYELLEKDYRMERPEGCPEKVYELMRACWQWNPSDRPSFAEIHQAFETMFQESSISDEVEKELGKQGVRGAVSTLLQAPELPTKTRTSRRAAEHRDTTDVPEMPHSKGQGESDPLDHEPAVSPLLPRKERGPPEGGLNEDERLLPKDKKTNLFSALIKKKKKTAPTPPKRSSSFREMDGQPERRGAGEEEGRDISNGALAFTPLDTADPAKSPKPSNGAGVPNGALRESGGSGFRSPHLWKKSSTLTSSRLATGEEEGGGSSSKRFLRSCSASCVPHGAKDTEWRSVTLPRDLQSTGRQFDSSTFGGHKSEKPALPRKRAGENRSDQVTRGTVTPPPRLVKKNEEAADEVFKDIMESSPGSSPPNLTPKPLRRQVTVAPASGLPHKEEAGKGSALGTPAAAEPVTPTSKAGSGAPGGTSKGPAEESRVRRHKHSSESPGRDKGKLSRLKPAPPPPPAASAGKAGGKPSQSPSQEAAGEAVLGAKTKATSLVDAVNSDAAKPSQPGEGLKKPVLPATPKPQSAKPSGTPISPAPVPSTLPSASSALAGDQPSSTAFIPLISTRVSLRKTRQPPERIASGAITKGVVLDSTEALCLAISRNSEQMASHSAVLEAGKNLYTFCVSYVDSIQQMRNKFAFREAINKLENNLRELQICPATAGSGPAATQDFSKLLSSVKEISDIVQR
Method: as §1, §2, §3

[3] = target: T3, SIK2 (Homo sapiens, UniProt Q9H0K1); assay: SIK2 kinase assay, IMAP fluorescence polarization; details: 50 or 100 μM ATP, average
T3 construct: purchased Life Technologies
T3 sequence (Q9H0K1 whole entry): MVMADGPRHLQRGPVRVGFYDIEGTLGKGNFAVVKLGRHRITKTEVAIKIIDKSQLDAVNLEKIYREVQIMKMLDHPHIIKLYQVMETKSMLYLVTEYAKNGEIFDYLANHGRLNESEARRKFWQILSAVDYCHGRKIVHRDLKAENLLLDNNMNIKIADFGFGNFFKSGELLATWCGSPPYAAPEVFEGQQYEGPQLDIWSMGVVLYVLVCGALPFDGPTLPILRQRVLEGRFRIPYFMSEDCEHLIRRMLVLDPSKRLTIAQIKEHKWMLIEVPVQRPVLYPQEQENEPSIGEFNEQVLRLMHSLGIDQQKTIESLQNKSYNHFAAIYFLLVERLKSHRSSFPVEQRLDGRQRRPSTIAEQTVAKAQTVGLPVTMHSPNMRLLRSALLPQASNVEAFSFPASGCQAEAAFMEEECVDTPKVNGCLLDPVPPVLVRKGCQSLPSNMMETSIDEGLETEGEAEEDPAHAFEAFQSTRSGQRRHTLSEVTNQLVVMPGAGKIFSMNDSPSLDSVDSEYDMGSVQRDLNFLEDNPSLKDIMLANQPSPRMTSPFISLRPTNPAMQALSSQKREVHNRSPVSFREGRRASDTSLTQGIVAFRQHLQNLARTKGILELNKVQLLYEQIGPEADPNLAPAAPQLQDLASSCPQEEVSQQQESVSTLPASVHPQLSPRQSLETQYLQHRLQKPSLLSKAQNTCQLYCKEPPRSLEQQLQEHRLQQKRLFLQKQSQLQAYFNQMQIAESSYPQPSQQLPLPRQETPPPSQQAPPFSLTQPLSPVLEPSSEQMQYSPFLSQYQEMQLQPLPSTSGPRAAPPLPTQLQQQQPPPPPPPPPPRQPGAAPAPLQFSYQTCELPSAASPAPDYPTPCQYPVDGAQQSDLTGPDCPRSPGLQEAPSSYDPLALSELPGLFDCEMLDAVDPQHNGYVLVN
Method: as §1, §2, §3

[4] = target: T4, Src (Homo sapiens, UniProt P12931); assay: Src kinase assay, IMAP fluorescence polarization; details: 50 or 100 μM ATP, average
T4 construct: purchased Life Technologies
T4 sequence (P12931 whole entry): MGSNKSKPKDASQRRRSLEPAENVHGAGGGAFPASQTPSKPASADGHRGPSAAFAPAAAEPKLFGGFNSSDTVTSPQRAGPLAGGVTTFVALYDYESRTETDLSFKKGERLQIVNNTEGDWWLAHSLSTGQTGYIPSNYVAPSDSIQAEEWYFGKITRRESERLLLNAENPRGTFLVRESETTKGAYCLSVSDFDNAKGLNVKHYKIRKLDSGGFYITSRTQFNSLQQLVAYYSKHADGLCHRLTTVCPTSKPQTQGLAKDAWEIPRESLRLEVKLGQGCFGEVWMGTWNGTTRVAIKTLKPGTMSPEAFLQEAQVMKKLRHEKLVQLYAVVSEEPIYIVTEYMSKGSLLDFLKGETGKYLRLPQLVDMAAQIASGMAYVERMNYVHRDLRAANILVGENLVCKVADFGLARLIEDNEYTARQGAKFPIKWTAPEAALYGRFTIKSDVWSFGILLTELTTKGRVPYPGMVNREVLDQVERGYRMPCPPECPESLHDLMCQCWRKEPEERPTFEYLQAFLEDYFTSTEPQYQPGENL
Method: as §1, §2, §3

[5] = target: T5, EPHA2 (Homo sapiens, UniProt P29317); assay: EPHA2 kinase assay, IMAP fluorescence polarization; details: 50 or 100 μM ATP, Tris pH 8.5, average
T5 construct: purchased Life Technologies
T5 sequence (P29317 24-976): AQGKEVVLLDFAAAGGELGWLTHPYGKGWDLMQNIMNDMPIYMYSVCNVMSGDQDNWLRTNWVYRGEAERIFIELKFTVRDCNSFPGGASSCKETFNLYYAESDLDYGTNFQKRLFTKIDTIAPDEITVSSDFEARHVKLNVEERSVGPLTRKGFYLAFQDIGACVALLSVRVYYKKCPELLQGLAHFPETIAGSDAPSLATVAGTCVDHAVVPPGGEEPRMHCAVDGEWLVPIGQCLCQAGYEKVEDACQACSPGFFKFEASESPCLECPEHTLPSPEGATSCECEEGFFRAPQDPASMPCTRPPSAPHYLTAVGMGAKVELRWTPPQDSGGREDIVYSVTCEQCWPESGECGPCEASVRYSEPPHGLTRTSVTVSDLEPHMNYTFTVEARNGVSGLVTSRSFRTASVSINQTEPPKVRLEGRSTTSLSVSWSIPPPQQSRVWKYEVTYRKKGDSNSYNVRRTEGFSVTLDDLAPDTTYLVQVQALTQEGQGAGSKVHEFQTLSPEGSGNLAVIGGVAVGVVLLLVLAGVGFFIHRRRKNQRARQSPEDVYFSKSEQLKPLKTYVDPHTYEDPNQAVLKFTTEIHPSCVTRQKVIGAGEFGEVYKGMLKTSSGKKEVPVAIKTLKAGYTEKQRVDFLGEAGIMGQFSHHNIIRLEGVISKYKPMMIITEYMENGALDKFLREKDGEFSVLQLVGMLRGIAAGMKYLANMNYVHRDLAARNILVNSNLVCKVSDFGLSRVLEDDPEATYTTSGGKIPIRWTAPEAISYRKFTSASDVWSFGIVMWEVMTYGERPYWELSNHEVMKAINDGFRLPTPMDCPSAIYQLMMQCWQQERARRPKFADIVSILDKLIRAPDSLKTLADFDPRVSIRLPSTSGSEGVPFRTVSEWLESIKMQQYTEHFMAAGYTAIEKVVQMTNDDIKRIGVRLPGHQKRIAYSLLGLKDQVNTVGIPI
Method: as §1, §2, §3

[6] = target: T6, SIK3 (Homo sapiens, UniProt Q9Y2K2); assay: SIK3 kinase assay, IMAP fluorescence polarization; details: 50 or 100 μM ATP, average
T6 construct: purchased Life Technologies
Method: as §1, §2, §3

T1 sequence (P57059 whole entry): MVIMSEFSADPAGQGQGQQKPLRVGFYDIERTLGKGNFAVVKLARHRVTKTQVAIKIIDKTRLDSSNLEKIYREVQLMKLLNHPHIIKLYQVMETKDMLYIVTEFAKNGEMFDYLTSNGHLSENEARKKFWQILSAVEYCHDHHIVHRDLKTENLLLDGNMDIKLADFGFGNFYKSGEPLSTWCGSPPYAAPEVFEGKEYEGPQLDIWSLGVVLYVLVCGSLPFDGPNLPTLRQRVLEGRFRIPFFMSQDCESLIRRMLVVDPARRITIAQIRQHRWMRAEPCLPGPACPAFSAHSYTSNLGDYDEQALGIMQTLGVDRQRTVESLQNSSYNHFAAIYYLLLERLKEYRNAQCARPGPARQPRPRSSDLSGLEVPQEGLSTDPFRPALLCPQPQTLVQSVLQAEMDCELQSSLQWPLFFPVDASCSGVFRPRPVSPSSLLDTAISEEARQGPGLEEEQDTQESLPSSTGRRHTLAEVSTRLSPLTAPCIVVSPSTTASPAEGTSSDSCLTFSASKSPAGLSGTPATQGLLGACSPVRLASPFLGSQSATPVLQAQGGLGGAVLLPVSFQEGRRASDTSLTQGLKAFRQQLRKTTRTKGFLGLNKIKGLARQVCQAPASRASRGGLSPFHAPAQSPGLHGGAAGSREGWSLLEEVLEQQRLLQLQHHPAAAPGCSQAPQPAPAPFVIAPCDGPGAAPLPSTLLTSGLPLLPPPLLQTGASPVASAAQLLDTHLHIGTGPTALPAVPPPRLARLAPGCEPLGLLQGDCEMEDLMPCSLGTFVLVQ

SMILES | Ki [1] [nM] | Ki [2] [nM] | Ki [3] [nM] | Ki [4] [nM] | Ki [5] [nM] | Ki [6] [nM]
Cc1cccc(F)c1-c1cc(NCC2CCNCC2)c2cc(N)ncc2c1 [Example 8, 7-(2-fluoro-6-methyl-phenyl)-N5-(4-piperidylmethyl)isoquinoline-3,5-diamine] | 0.546 | 1.4 | 0.108 | 16.5 | 5.15 | 1.02
Cc1cccc(F)c1-c1cc(NC[C@H]2CCCN2)c2cc(N)ncc2c1 [Example 12, 7-(2-fluoro-6-methyl-phenyl)-N5-[[(2R)-pyrrolidin-2-yl]methyl]isoquinoline-3,5-diamine] | 1.07 | 22.9 | 0.329 | 167 | 216 | 3.1
Cc1cccc(F)c1-c1cc(NC[C@@H]2CCCCN2)c2cc(N)ncc2c1 [Example 14, 7-(2-fluoro-6-methyl-phenyl)-N5-[[(2S)-2-piperidyl]methyl]isoquinoline-3,5-diamine] | 0.601 | 8.01 | 0.0969 | 67.8 | 59.5 | 2.43
CNC1CCN(c2cc(-c3c(C)cccc3F)cc3cnc(N)cc23)CC1 [Example 15, 7-(2-fluoro-6-methyl-phenyl)-5-[4-(methylamino)-1-piperidyl]isoquinolin-3-amine] | 1.01 | 19.4 | 0.155 | 396 | 156 | 1.94
CN[C@H]1CCN(c2cc(-c3c(C)cccc3F)cc3cnc(N)cc23)C1 [Example 16, 7-(2-fluoro-6-methyl-phenyl)-5-[(3S)-3-(methylamino)pyrrolidin-1-yl]isoquinolin-3-amine] | 2 | 41.6 | 0.224 | 924 | 278 | 4.7

Continued, values first:

Ki [1] [nM] | Ki [2] [nM] | Ki [3] [nM] | Ki [4] [nM] | Ki [5] [nM] | Ki [6] [nM] | SMILES
0.31 | 0.298 | 0.0517 | 145 | 49.5 | 0.57 | Cc1cccc(F)c1-c1cc(NC[C@@H]2CCNC2)c2cc(N)ncc2c1 [Example 6, 7-(2-fluoro-6-methyl-phenyl)-N5-[[(3R)-pyrrolidin-3-yl]methyl]isoquinoline-3,5-diamine]
0.414 | 5.55 | 0.0496 | 193 | 199 | 0.325 | Cc1cccc(F)c1-c1cc(N[C@H]2CCNC2)c2cc(N)ncc2c1 [Example 7, 7-(2-fluoro-6-methyl-phenyl)-N5-[(3S)-pyrrolidin-3-yl]isoquinoline-3,5-diamine]
0.316 | 0.687 | 0.0411 | 217 | 166 | 0.269 | Cc1cccc(F)c1-c1cc(NC[C@H]2CCNC2)c2cc(N)ncc2c1 [Example 9, 7-(2-fluoro-6-methyl-phenyl)-N5-[[(3S)-pyrrolidin-3-yl]methyl]isoquinoline-3,5-diamine]
0.535 | 4.83 | 0.101 | 32.1 | 47.6 | 0.966 | Cc1cccc(F)c1-c1cc(NC[C@@H]2CCCNC2)c2cc(N)ncc2c1 [Example 10, 7-(2-fluoro-6-methyl-phenyl)-N5-[[(3R)-3-piperidyl]methyl]isoquinoline-3,5-diamine]
0.417 | 0.921 | 0.0672 | 23.5 | 95.1 | 0.195 | Cc1cccc(F)c1-c1cc(NCC2CNC2)c2cc(N)ncc2c1 [Example 11, N5-(azetidin-3-ylmethyl)-7-(2-fluoro-6-methyl-phenyl)isoquinoline-3,5-diamine]
0.501 | 3.29 | 0.191 | 24.3 | 144 | 1.01 | Cc1cccc(F)c1-c1cc(NC[C@@H]2CCCN2)c2cc(N)ncc2c1 [Example 13, 7-(2-fluoro-6-methyl-phenyl)-N5-[[(2S)-pyrrolidin-2-yl]methyl]isoquinoline-3,5-diamine]
